Drawing on US20050124622A1, “Compounds and methods for the treatment of pain” (priority 1999, published 2005), this text covers Ki for 10 molecules.

For the experiment, the target named is T1, NMDA receptor glycine site (Rattus norvegicus, UniProt P35439).
T1 construct: brain membranes bearing the receptor; tissue Analytical Biological Services Inc; host or cells: rat brain (cerebral cortex and hippocampus) membranes
Kind of experiment: Test A: Inhibition of binding of [3H]-MDL105,519 to brain membranes. The text has this: Test A: Inhibition of Binding of [^3H]-MDL105,519:
Binding of compounds to the NMDA receptor glycine site may be assessed by measuring the ability of test compounds to inhibit the binding of tritiated MDL105,519 to brain membranes bearing the receptor.
Briefly, fresh brain tissue including cerebral cortex and hippocampus from male Sprague Dawley rats was homogenized in 0.32 M sucrose and centrifuged at low speed to separate cellular membranes from other cellular components. The membranes were then washed 3 times using deionized water, followed by treatment with 0.04% Triton X-100. Finally, membranes were washed six times in 50 mM Tris citrate buffer, pH 7.4, and frozen at −80° C. until use.
[^3H]MDL105,519 (72 Ci/mmol) was purchased from Amersham. Cold MDL105,519 was purchased from Sigma/RBI. […] On the day of the experiment, brain membranes were thawed at room temperature and suspended in 50 mM tris acetate buffer, pH 7.4 (“TAB”). Seventy-five micro grams per milliliter protein (by using the BioRad dye) were used for competition binding. The experiments were carried out using 96-well plates. […] Non specific binding was determined by using 100 μM of unlabeled MDL105,519. […] After incubation, unbound [^3H]MDL105,519 was removed by filtration onto GF/B Unifilter plates using a Packard harvester. Filters were washed four times with ice cold TAB (total of 1.2 mL buffer). The plates were dried overnight at room temperature and bound radioactivity was measured on a Packard TopCount after the addition of 45 μL per well of the MICROSCINT O.
Human Brain Membranes: Human brain membranes were obtained from Analytical Biological Services Inc., and assays were performed as described for rat membranes.
Data analysis: Data was analyzed using a Microsoft Excel spreadsheet and GraphPad Prizm software and potency of compounds is expressed as the Ki (nM).

Setting [1] is: inhibition of 1.2 nM [3H]MDL105,519 binding to brain membranes, 30 minutes at room temperature.

Like-named read-outs stand apart in the source and are kept apart here.

`O=c1c2ccc(Cl)cc2[nH]c2c(O)nn(CC3CCCO3)c(=O)c12` (racemic) [Ex. 4, 7-Chloro-4-hydroxy-2-(tetrahydro-furan-2-ylmethyl)-1,2,5,10-tetrahydropyridazino[4,5-b]quinoline-1,10-dione] displayed a Ki of 449 nM.

On to `O=c1c2ccc(Cl)cc2[nH]c2c(O)nn(Cc3ccc(-c4nnco4)cc3)c(=O)c12` [Ex. 1, 7-Chloro-4-hydroxy-2-(4-[1,3,4]oxadiazol-2-yl-benzyl)-1,2,5,10-tetrahydropyridazino[4,5-b]quinoline-1,10-dione], for which affinity was put at a Ki of 95.8 nM.

Molecule `O=c1c2ccc(Cl)cc2[nH]c2c(O)nn(Cc3cccc(-c4nnn[nH]4)c3)c(=O)c12` [Ex. 2, 7-Chloro-4-hydroxy-2-[3-(1H-tetrazol-5-yl)-benzyl]-1,2,5,10-tetrahydropyridazino[4.5-b]quinoline-1,10-dione.] returned an inhibitory constant (Ki) under setting [1] of 42.7 nM.

`Cc1ncc(CO)c(Cn2nc(O)c3[nH]c4cc(Cl)ccc4c(=O)c3c2=O)c1O` [Ex. 3, 7-Chloro-4-hydroxy-2-[3-hydroxy-5(hydroxymethyl)-2-methyl(4-pyridyl)]methyl-1,2,5,10-tetrahydropyridazino[4,5-b]quinoline-1,10-dione Methanesulfonate] gave a Ki of 1150 nM.

Under setting [1], `COc1ccc(-c2nnc(Cn3nc(O)c4[nH]c5cc(Cl)ccc5c(=O)c4c3=O)o2)cc1` [Ex. 5, 7-Chloro-4-hydroxy-2-[5-(4-methoxy-phenyl)-[1,3,4]oxadiazol-2-ylmethyl]-1,2,5,5,10-tetrahydropyridazino[4,5-b]quinoline-1,10-dione] showed a Ki of 146 nM.

With `O=Cc1ccc(Cn2nc(O)c3[nH]c4cc(Cl)ccc4c(=O)c3c2=O)cc1` [Ex. 7, 4-[(7-Chloro-4-hydroxy-1,10-dioxo-2.5-dihydropyridazino[4,5-b]quinolin-2-yl)methyl]benzaldehyde], the inhibition constant Ki amounted to 173 nM.

`CC(C)(C)OC(=O)NN=Cc1ccc(Cn2nc(O)c3[nH]c4cc(Cl)ccc4c(=O)c3c2=O)cc1` [Ex. 8] gave a Ki of 124 nM.

For the molecule `O=c1c2ccc(Cl)cc2[nH]c2c(O)nn(Cc3ccc(C=NNc4ccccn4)cc3)c(=O)c12` [Ex. 9, 2-{[4-[2-Aza-2-(2-pyridylamino)vinyl]phenyl}methyl)-7-chloro-4-hydroxy-2,5-dihydropyridazino[4,5-b]quinoline-1,10-dione], the Ki was determined as 159 nM.

`O=C(NN=Cc1ccc(Cn2nc(O)c3[nH]c4cc(Cl)ccc4c(=O)c3c2=O)cc1)c1ccccc1` [Ex. 10] came in with a Ki of 91 nM.

Molecule `Cc1cc(C)c(S(=O)(=O)NN=Cc2ccc(Cn3nc(O)c4[nH]c5cc(Cl)ccc5c(=O)c4c3=O)cc2)c(C)c1` [Ex. 11, 2-{[4-(2-Aza-2-{[(2,4,6-trimethylphenyl)sulfonyl]amino}vinyl)phenyl]methyl}-7-chloro-4-hydroxy-2,5-dihydropyridazino[4,5-b]quinoline-1,10-dione] returned a Ki of 227 nM.
